Experimental data from paper PMC2894858 (PLoS ONE, 2010).
Like-named read-outs stand apart in the source and are kept apart here. Non-standard residues stand in square brackets, D forms with d. Residues, ends and D or L forms follow the SMILES beside them. Aib = CC(C)(N)C(=O)O

What was measured:
BoNT/A LC [1] = molecular target: T1, BoNT/A LC (Clostridium botulinum, UniProt P0DPI0); conditions: cited from earlier work; for IC50: read-out: Reported Ki (cell: IC50)
BoNT/A LC [2] = molecular target: T1, BoNT/A LC; test: biochemical; type: biochemical; conditions: for Ki range in words: pH 7.3
Target sequence in this assay (P0DPI0 2-448 limits assumed): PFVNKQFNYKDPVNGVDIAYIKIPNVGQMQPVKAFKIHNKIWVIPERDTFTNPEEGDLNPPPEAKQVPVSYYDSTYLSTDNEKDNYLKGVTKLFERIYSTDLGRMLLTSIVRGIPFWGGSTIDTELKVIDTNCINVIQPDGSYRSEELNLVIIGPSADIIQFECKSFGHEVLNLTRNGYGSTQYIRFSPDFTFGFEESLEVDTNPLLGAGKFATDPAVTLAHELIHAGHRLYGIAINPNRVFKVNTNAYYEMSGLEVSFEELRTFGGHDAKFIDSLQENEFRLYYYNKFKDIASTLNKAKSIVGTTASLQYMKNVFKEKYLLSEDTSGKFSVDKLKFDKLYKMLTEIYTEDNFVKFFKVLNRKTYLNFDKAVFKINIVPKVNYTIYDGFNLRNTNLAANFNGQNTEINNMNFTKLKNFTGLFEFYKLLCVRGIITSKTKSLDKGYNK

NC(N)=NCCC[C@H](N)C(=O)NO [ArgHX, arginine hydroxamate]
IC50 (BoNT/A LC [1]): 60 µM

Fmoc-L-Leu-OH (0.124 g, 0.350 mmol, 3.50 equiv), Fmoc-L-Met-OH (0.130 g, 0.350 mmol, 3.50 equiv), Fmoc-L-Ala-OH (0.115 g, 0.350 mmol, 3.50 equiv), Fmoc-Aib-OH (0.114 g, 0.350 mmol, 3.50 equiv), Fmoc-L-1-Nal-OH (0.153 g, 0.350 mmol, 3.50 equiv), Fmoc-L-Arg(Pbf)-OH (0.227 g, 0.350 mmol, 3.50 equiv), Fmoc-L-Arg(Pbf)-OH (0.227 g, 0.350 mmol, 3.50 equiv) [JTH-NB72-35]
potency compared with I1 (BoNT/A LC [2]): none of them were as potent as I1
potency rank among the three reported PLMs (BoNT/A LC [2]): the most potent of the three reported PLMs
Ki range in words (BoNT/A LC [2]): nM range

CSCC[C@H](NC(=O)[C@H](C)NC(=O)C(C)(C)NC(=O)[C@H](Cc1ccccc1)NC(=O)[C@H](CCCNC(=N)N)NC(=O)[C@@H](N)CCCNC(=N)N)C(=O)N[C@@H](CC(C)C)C(N)=O [JTH-NB72-39] (H-RRF[Aib]AML-NH2)
Ki (BoNT/A LC [2]): 0.638 ± 0.092 µM
Ki range in words (BoNT/A LC [2]): nM range

QRATKM
Ki (BoNT/A LC [1]): 133 µM
IC50 (BoNT/A LC [1]): 133 µM

CSCC[C@H](NC(=O)[C@H](C)NC(=O)C(C)(C)NC(=O)[C@H](Cc1c[nH]c2ccccc12)NC(=O)[C@H](CCCNC(=N)N)NC(=O)[C@@H](N)CCCNC(=N)N)C(=O)N[C@@H](CC(C)C)C(N)=O [JTH-NB72-38] (H-RRW[Aib]AML-NH2)
Ki (BoNT/A LC [2]): 0.991 ± 0.117 µM
Ki range in words (BoNT/A LC [2]): nM range

O=C(/C=C/c1ccc(Cl)cc1)NO [4-chlorocinnamic hydroxamate]
IC50 (BoNT/A LC [1]): 15 µM
